This note sets out measurements from patent US11111240B2, “Sultam compound and application method thereof” (Chia Tai Tianqing Pharmaceutical Group Co., Ltd., priority 2016, dated 2021).

The nature of series [1]: Pharmacokinetic experiments in male SD rats, single peroral administration. The note with it: for Cmax / Tmax / AUC(0-inf) / half-life: plasma; for AUC(0-inf): read-out: AUCINF—obs. It is filed as in vivo, rat. Here is the method: Male SD rats were from Beijing Vital River Laboratory Animal Technology Co., Ltd., and divided into groups (3 rats per group). The rats were intragastrically administered with the test sample suspension (5 mg/kg) via a single peroral administration, respectively. The animals were fasted overnight before this study. The fasting time period was from 10 hours before administration to 4 hours after administration. Blood samples were taken at 0.25, 0.5, 1, 2, 4, 6, 8 and 24 hours after administration. After the rats were anesthetized with isoflurane using an anesthesia machine for small animal, and then 0.3 mL whole blood samples were taken from the fundus venous plexus. The blood samples were placed in heparin anticoagulant tubes, and centrifuged for 5 min at 4° C. and 4000 rpm. The plasma was transferred to centrifuge tubes, and stored at −80° C. until analysis. The samples in plasma were extracted through protein precipitation. The liquid extract was analyzed by LC-MS/MS, wherein HPLC conditions were as follows: flow rate 0.4 mL/min; mobile phase A: water/formic acid (99.9/0.1, v/v); mobile phase B: acetonitrile/formic acid (99.9/0.1, v/v); injection volume: 5 μL; column temperature: RT; autosampler temperature: RT; run time: 2.5 min.

The test system of a further series is U87/IDH1 (R132H) cells. In words: Inhibitory activity on IDH1-mutated U87 cells (2-HG determination). It is filed as cell-based. The conditions noted are these: Homo sapiens, U-87 MG.
For the next series, the target named is IDH1 (R132C) (Homo sapiens (Human), UniProt O75874, R132C). Kind of series: Enzyme assay, IDH1m inhibition (NADPH decrease, diaphorase/resazurin). Format: biochemical. The note with it: 40 nM enzyme, 16 h pre-incubation at 23° C. From the text: (§1) Resazurin is a traditional redox dye, and after a redox reaction, it can be reduced from a blue resazurin without fluorescence to a pink fluorescent substance, resorufin, which can be measured and quantified with relative fluorescence unit (RFU) of fluorophotometer (Ex=530-570 nm, Em=590-620 nm). At present, resazurin is widely used for determining the viability of bacteria, cells, etc. and the enzyme activity detection of oxidoreductase. We detected the decrease of cofactor NADPH to determine the inhibitory activity of a compound against IDH1m and detected the generation of cofactor NADPH to determine the inhibitory activity of a compound against IDH WT. The compound was pre-incubated with IDH1m and NADPH, and then the reaction was initiated by adding α-KG and performed for certain time under a linear condition. Then, diaphorase (lipoamide dehydrogenase) and the corresponding substrate resazurin were added thereto for detection. Lipoamide dehydrogenase terminated the IDH1m reaction by decreasing the available cofactor NADPH, which oxidized NADPH to NADP, and reduced resazurin to high fluorescent resorufin. The amount of the remaining cofactor NADPH after a specific reaction time was quantified via an easily detectable fluorophore.
Chain of IDH1 (R132C) (O75874 whole entry R132C): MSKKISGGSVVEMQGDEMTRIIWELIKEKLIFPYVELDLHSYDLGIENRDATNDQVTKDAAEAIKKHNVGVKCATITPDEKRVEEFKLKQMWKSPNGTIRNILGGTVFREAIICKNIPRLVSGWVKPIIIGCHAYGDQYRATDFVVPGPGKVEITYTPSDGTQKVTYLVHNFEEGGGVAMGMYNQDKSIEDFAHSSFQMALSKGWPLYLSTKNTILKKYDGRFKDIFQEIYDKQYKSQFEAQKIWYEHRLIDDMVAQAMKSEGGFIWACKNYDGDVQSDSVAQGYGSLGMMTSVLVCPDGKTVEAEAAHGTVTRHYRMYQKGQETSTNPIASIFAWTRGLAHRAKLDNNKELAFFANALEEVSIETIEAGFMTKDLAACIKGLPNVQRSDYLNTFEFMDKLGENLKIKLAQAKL
(§2) The specific operation was as follows: 2.5 μl of the compound diluted in a 3-fold gradient was added to a 384-well plate, followed by adding 5 μl of the reaction buffer (20 mM Tris-HCl, pH 7.5; 150 mM NaCl; 10 mM MgCl2; 0.4 mg/mL BSA (Bovine Serum Albumin) and 2 mM DTT (dithiothreitol)) containing 40 nM IDH1 (R132H/R132C) and 20 μM NADPH. Then, the above test mixture was incubated at 23° C. for 16 hours, and then 2.5 μl of the reaction buffer containing 4 mM α-KG was added to initiate the reaction. After they were incubated for 60 minutes at room temperature, 5 μl of the termination mixture (0.4 U/ml diaphorase and 20 μM resazurin) formulated with the reaction buffer was added to convert resazurin to resorufin, so as to measure the amount of the remaining NADPH. After incubating at 23° C. for 10 minutes, fluorescence values were determined through Flexstation 3 at Ex535/Em595. The enzyme activity of each compound was respectively determined at 12 concentrations, and the data were calculated using the software GraFit6.0 (Erithacus Software) to obtain the IC50 value of each compound.

The target in another series is IDH1 (R132H) (Homo sapiens (Human), UniProt O75874, R132H). The description is as above. The note with it: 40 nM enzyme, 16 h pre-incubation at 23° C. It is filed as biochemical.
Chain of IDH1 (R132H) (O75874 whole entry R132H): as the sequence (O75874 whole entry R132C) above, with C132H counted along it
Excerpt: as §1, §2

Where [2] appears, read: rat, male SD rats, oral 5 mg/kg, 0.5% MC, 0.2% Tween80.

Read-outs that look alike come from different tables or passages of the source.

Description for U87/IDH1 (R132H) cells: In the presence of 2-HG, phosphoglycerate dehydrogenase PHGDH can reduce NAD to NADPH, and the latter may be quantitatively determined by lipoamide dehydrogenase and the substrate thereof, resazurin.
U87 cell is a human glioblastoma cell line with an IDH1 mutation (R132H).
Cells was digested with trypsin, and inoculated into a 6-well plate at a density of 5×10^5, and cultured overnight in an incubator at 37° C. […] Culture medium of each sample was sucked out and centrifuged at 1000 rpm for 10 min. The supernatant was sucked out to detect the content of 2-HG therein. Additionally, cells were washed with PBS (phosphate buffered saline), digested with trypsin and collected. After the collected cells were washed with PBS for one time, the determination of intracellular 2-HG content was performed.
The method for determining the intracellular 2-HG was as follows: cells were re-suspended with 300 μL reaction buffer (40 mM Tris-HCl, pH 8.5; 150 mM NaCl) and disrupted by ultrasonication. They were centrifuged for 10 min at 12,000 rpm and 4° C. to remove insoluble substances. 25 μL supernatant was sucked out to determine the protein concentration by a BCA kit. […]
The measured fluorescence values were compared after being corrected with the protein concentrations of the corresponding samples.

As usually defined, the Cmax is the highest concentration seen after dosing. The Tmax is the time from dosing to the highest level. One may read the IC50 as the concentration that gives 50% inhibition. Low values mean greater potency in that assay, high ones weaker potency in that assay. For `N#Cc1ccnc(N2C(=O)CC[C@H]2C(=O)N(c2cncc(F)c2)[C@H](C(=O)NC2CC(F)(F)C2)c2ccccc2Cl)c1` [AG-120, ivosidenib, reference compound], in series [1] (setting [2]), the Cmax is 719 ng/mL, the Tmax came to 0.67 h and the AUC(0-inf) is 6320 ng·h/mL. Moreover, the half-life in series [1] (rat, male SD rats, oral 5 mg/kg, 0.5% MC, 0.2% Tween80, read-out: T1/2 (converted)) was 3.28 h. The IC50 in the series with U87/IDH1 (R132H) cells was found to be 46 nM.
`N#Cc1ccnc(N2[C@H](C(=O)N(c3cccc(F)c3)[C@H](C(=O)NC3CC(F)(F)C3)c3ccccc3Cl)CCS2(=O)=O)c1` [Example 12, (S)—N—((S)-1-(2-chlorophenyl)-2-((3,3-difluorocyclobutyl)amino)-2-oxoethyl)-2-(4-cyanopyridin-2-yl)-N-(3-fluorophenyl)-isothiazolidine-3-carboxamide 1,1-dioxide] had a T1/2 in series [1] (male SD rats, oral 5 mg/kg, 0.5% MC, 0.2% Tween80) of 10.7 h. Also, the half-life in series [1] (male, SD, 5 mg/kg, rat, oral, read-out: half-life (converted)) was 10.7 h. In series [1] (setting [2]), the Cmax amounted to 556 ng/mL, the Tmax is 4 h and the AUC(0-inf) was 10600 ng·h/mL. Besides, the “drug exposure in plasma compared with AG-120” value in series [1] (rat, same oral dose) is reported as “far higher than that of AG-120”. Moreover, at IDH1 (R132C), the IC50 is less than 20 nM. The same compound showed a half-inhibitory concentration (IC50) on IDH1 (R132H) of less than 20 nM.
As for `N#Cc1ccnc(N2[C@H](C(=O)N(c3cncc(F)c3)[C@H](C(=O)NC3CC(F)(F)C3)c3ccccc3Cl)CCS2(=O)=O)c1` [Example 2, (S)—N—((S)-1-(2-chlorophenyl)-2-((3,3-difluorocyclobutyl)amino)-2-oxoethyl)-2-(4-cyanopyridin-2-yl)-N-(5-fluoropyridin-3-yl)-isothiazolidine-3-carboxamide 1,1-dioxide], the IC50 is 6.7 nM in the series with U87/IDH1 (R132H) cells, less than 20 nM against IDH1 (R132C) and less than 20 nM on IDH1 (R132H).
For the compound `N#Cc1ccnc(N2[C@H](C(=O)N(c3cccc(C(F)(F)F)c3)[C@@H](C(=O)NC3CC(F)(F)C3)c3ccccc3Cl)CCS2(=O)=O)c1` [Example 5, (S)—N—((R)-1-(2-chlorophenyl)-2-((3,3-difluorocyclobutyl)amino)-2-oxoethyl)-2-(4-cyanopyridin-2-yl)-N-(3-trifluoromethylphenyl)-isothiazolidine-3-carboxamide 1,1-dioxide], the IC50 against IDH1 (R132H) is less than 1000 nM.
Still for that read-out and setting: next, `N#Cc1ccnc(NS(=O)(=O)c2cccc(N(C(=O)[C@@H]3CCS(=O)(=O)N3c3cc(C#N)ccn3)C(C(=O)NC3CCCCC3)c3ccccc3Cl)c2)c1` (stereo partly drawn) [Example 20, (3S)—N-(1-(2-chlorophenyl)-2-(cyclohexylamino)-2-oxoethyl)-2-(4-cyanopyridin-2-yl)-N-(3-(N-(4-cyanopyridin-2-yl)aminosulfonyl)phenyl)-isothiazolidine-3-carboxamide 1,1-dioxide]: less than 20 nM.
The same measure, in the same setting: in the case of `N#Cc1ccnc(N2[C@H](C(=O)N(c3cncc(F)c3)[C@@H](C(=O)NC3CC(F)(F)C3)c3ccccc3Cl)CCS2(=O)=O)c1` [Example 1, (S)—N—((R)-1-(2-chlorophenyl)-2-((3,3-difluorocyclobutyl)amino)-2-oxoethyl)-2-(4-cyanopyridin-2-yl)-N-(5-fluoropyridin-3-yl)-isothiazolidine-3-carboxamide 1,1-dioxide] it was less than 10000 nM; in that of `O=C(NC1CCCCC1)[C@@H](c1ccccc1Cl)N(C(=O)[C@@H]1CCS(=O)(=O)N1c1cc(F)ccn1)c1cccc(F)c1` [Example 17, (S)—N—((R)-1-(2-chlorophenyl)-2-(cyclohexylamino)-2-oxoethyl)-2-(4-fluoropyridin-2-yl)-N-(3-fluorophenyl)-isothiazolidine-3-carboxamide 1,1-dioxide], less than 10000 nM.
